Source: patent EP0300423A2, “Cephalosporin compound, method of its production and composition for prevention and treatment of bacterial infectious diseases” (Kyoto Pharmaceutical Industries, Ltd., priority 1987, dated 1989)
≈ marks a conversion by molar mass, not a printed value. Where a name gives a salt, the structure may show the parent alone.

Columns and labels:
[1] = test system: Staphylococcus aureus Smith; assay: Antibacterial activity test, minimum inhibitory concentration; format: cell-based
Escherichia coli NIH = assay: as above; format: cell-based
[2] = Acute toxicity test, oral administration; details: mouse, in vivo, male ICR mice, 5 weeks in age, n = 3, orally administered as aqueous solution in distilled water, read-out: LDso value
Method: The acute toxicity of the orally administered cephalosporin derivative of this invention in mice was determined. The test is summarized as follows:
Subject animals: Male mice (ICR, at 5 weeks in age), n = 3
Method of administration: The cephalosporin derivative as obtained in Example 3 below was dissolved in distilled water, and this aqueous solution was orally administered.

| Structure (SMILES) | MIC [1] [µg/mL] | MIC (Escherichia coli NIH) [µg/mL] | LD50 [2] [mg/kg] |
| --- | --- | --- | --- |
| N[C@@H](C(=O)N[C@@H]1C(=O)N2C(C(=O)O)=C(Cl)CS[C@H]12)c1ccccc1 [Cefaclor, cefaclor, reference compound] | 1.56 (≈ 4.24 µM) | 0.78 (≈ 2.12 µM) | – |
| O=C(O)C1=C(CSc2ncns2)CS[C@@H]2[C@H](NC(=O)[C@H](O)c3ccccc3)C(=O)N12 [Example 1, 7-D-(-)Mandelamido-3-(1,2,4-thiadiazol-5-yl)thiomethyl-3-cephem-4-carboxylic acid] | 0.2 (≈ 0.431 µM) | 0.39 (≈ 0.84 µM) | – |
| C[C@H](N)C(=O)O[C@@H](C(=O)N[C@@H]1C(=O)N2C(C(=O)OCOC(=O)C(C)(C)C)=C(CSc3ncns3)CS[C@H]12)c1ccccc1 [Example 3, Pivaloyloxymethyl 7-[D-O-(L-alanyl)mandelamido]-3-[(1,2,4-thiadiazol-5-yl)thiomethyl]-3-cephem-4-carboxylate hydrochloride] | – | – | < 5000 |
